The text below walks through data of patent US4299821A, “Tripeptides acting on the central nervous system and a process for the preparation thereof” (Richter Gedeon Vegyeszeti Gyar Rt., priority 1979, dated 1981).

Where a SMILES comes first, the peptide text is derived from it. [ ]: non-standard residue; d: D form. pGlu = O=C1CC[C@@H](C(=O)O)N1; Nle = CCCC[C@H](N)C(=O)O; Nva = CCC[C@H](N)C(=O)O; Abu = CC[C@H](N)C(=O)O

The subject of one assay is Reserpine hypothermy. The experiment in a line: Reserpine hypothermy-reversing effect on mice. Particulars: average of 10 animals; for Reserpine hypothermy reversing effect, Rectal temperature res.: 16 hours after reserpine 5 mg/kg i.p., before the tripeptide; for Reserpine hypothermy reversing effect, Rectal temperature norm.: prior to the administration of reserpine (baseline of the group); for Reserpine hypothermy reversing effect, Rectal temperature obs. time 1 h / Reserpine hypothermy reversing effect, Rectal temperature obs. time 2 h: reserpine 5 mg/kg i.p.; for Reserpine hypothermy reversing effect, Rectal temperature obs. time 1 h: 1 hour after 20 mg/kg of the tripeptide; for Reserpine hypothermy reversing effect, Rectal temperature obs. time 2 h: 2 hours after 20 mg/kg of the tripeptide. Type of assay: in vivo, male mice. As for the experimental part:
(3) Reserpine hypothermy-reversing effect on mice (see B. M. Askew: Life Sci. 2, 725-730 /1963/)
The tests were performed on groups of 10 male mice each, weighing 18 to 22 g. Reserpine was administered into the animals in an intraperitoneal dosage of 5 mg/kg, and 16 hours later the animals were treated with 20 mg/kg of TRH or a tripeptide under examination.
The rectal temperature of the animals was measured prior to the administration of reserpine (marked by "norm." in Table 1), 16 hours after the administration of reserpine (marked by "res." in Table 1), furthermore 1 and 2 hours after the administration of the tripeptide (marked by "obs. time" in Table 1). The data listed in Table 1 are the averages of the temperatures observed on the 10 animals.

Assay [1] deals with Haloperidol-induced catalepsy. The experiment in a line: Inhibition of Haloperidol-induced catalepsy on rats. The assay is classed as in vivo, male Wistar rats. The settings on record: 40 mg/kg Haloperidol s.c., compound i.v. 120 min later, probit analysis, observation time per compound. As for the experimental part:
(1) Inhibition of Haloperidol-induced catalepsy on rats (see J. Delay and P. Deniker: Compt. Rend. Congr. Med. Alenistes Neurologistes, 19, 497, Luxembourg, 1952)
The tests were performed on male Wistar rats weighing 160 to 180 g.
40 mg/kg of 4-(p-chlorophenyl)-1-(3-/p-fluorobenzoyl/propyl)-piperidin-4-ol(Haloperidol) were administered subcutaneously into the animals, and 120 minutes after this treatment the animals were checked for the appearance of catalepsy. The rats were divided into groups of 10 animals each, and treated intravenously with TRH or the new TRH analogues. The animals belonging to the control group received physiological saline. The catalepsy-suspending effects of the individual compounds were determined 15, 30, 60, 90 and 120 minutes after the treatment. The animals that had not changed their position for 30 seconds after placing their fore-paw onto a 7 cm high column were regarded as cataleptic.

Assay [2] has as its system sleeping caused by hexobarbital. The experiment in a line: Influencing the duration of sleeping caused by hexobarbital. Type of assay: in vivo, male mice. The settings on record: mice, hexobarbital sodium 60 mg/kg i.v., 10 min later compound 20 mg/kg i.p.; control 38.4 ± 1.36 min. Here is the method:
(4) Influencing the duration of sleeping caused by hexobarbital The tests were performed on groups of 10 male mice each. The animals were treated intravenously with 60 mg/kg of hexobarbital sodium ([…]; Bayer), and 10 minutes later 20 mg/kg of TRH or a tripeptide under examination were administered intraperitoneally into the animals. The sleeping times of the animals were recorded, averages were calculated for the individual groups, and the results were expressed as percents related to the control group.

For assay [3], the system named is locomotive activity induced by L-Dopa. Put plainly: Potentiation of locomotive activity induced on mice by L-Dopa. Type of assay: in vivo, male mice. The settings on record: Pargyline 40 mg/kg i.p., compound 20 mg/kg i.p., L-Dopa 100 mg/kg i.p., percent related to TRH; for Potentiation of the locomotive effect of L-Dopa % after 30': 30 min; for Potentiation of the locomotive effect of L-Dopa % after 60': 60 min; for Potentiation of the locomotive effect of L-Dopa % after 90': 90 min. As for the experimental part: (2) Potentiation of locomotive activity induced on mice by L-Dopa (see The Thyroid Axis, Drugs and Behavior, p. 116, A. J. Prage Jr., Raven Press, New York, 1974)
The tests were performed on groups of 15 male mice each, weighing 18 to 22 g.
First, the animals were treated intraperitoneally with 40 mg/kg of N-methyl-N-propargyl-benzylamine (Pargyline), and then an intraperitoneal dosage of 20 mg/kg of TRH or a TRH-analogue was introduced, followed by an intraperitoneal dosage of 100 mg/kg of L-Dopa. The locomotive activity of the animals was recorded 30, 60 and 90 minutes after this treatment, and the level of potentiation was expressed in percents related to the results observed with TRH.

The subject of a further assay is TSH. Put plainly: Hormonal activity (TSH effect) on rats. The assay is classed as in vivo, male Wistar rats. Particulars: 20 mg/kg i.v., plasma TSH by radioimmune assay 15 min after treatment, relative activity, TRH = 100%. As for the experimental part: (6) Hormonal activity (TSH effect) on rats
The tests were performed on groups of 7 or 8 male Wistar rats each, weighing 200 g. The animals were treated intravenously with 20 mg/kg of TRH or a tripeptide under examination. The TSH reaction of the animals was evaluated 15 minutes after this treatment, by subjecting the blood plasma to radioimmune assay. The relative activities were calculated by the four-point method using a TPA 101 computer, and the activity of TRH was regarded as 100%.

The test system of a further assay is Ethanol narcosis. The experiment in a line: Ethanol narcosis. Type of assay: in vivo. Particulars: mice, 4.5 g ethanol i.p., 10 min later compound 20 mg/kg i.p.; control 46.9 ± 2.17 min. Here is the method:
(5) Ethanol narcosis (see J. M. Cott et al.: J. Pharm. Exp. Ther. 196, 594 /1976/) The tests were performed on groups of 20 mice of both sexes, each weighing 18 to 22 g. […] of ethanol were introduced intraperitoneally into the animals, and 10 minutes later the animals were treated intraperitoneally with 20 mg/kg of TRH or a tripeptide under examination. The sleeping periods of the animals were recorded, averages were calculated for the individual groups, and the results were expressed as percents related to the control group.

As to `CC[C@H](NC(=O)[C@@H]1CCC(=O)N1)C(=O)N1CCC[C@H]1C(N)=O` [Abu Pro H, L-Pyroglutamyl-L-α-aminobutyl-L-prolinamide] ([pGlu]-[Abu]-Pro-NH2), in the assay with Reserpine hypothermy, the “Reserpine hypothermy reversing effect, Rectal temperature res.” value came to 19.7 °C; the “Reserpine hypothermy reversing effect, Rectal temperature norm.” value came to 36.3 °C; the “Reserpine hypothermy reversing effect, Rectal temperature obs. time 1 h” value was determined as 22.2 °C; the “Reserpine hypothermy reversing effect, Rectal temperature obs. time 2 h” value is 25.4 °C. Moreover, in assay [1], the “Inhibition of Haloperidol catalepsy ED50” value is given as 80 mg/kg. The “Decrease of sleeping period (% related to the control animals) Hexobarb.” value in assay [2] is 84%. Besides, in assay [3], the “Potentiation of the locomotive effect of L-Dopa % after 30'” value (“Potentiation … of L-Dopa % after 30'” for short) stood at 27%, the “Potentiation of the locomotive effect of L-Dopa % after 60'” value (shortened to “Potentiation … of L-Dopa % after 60'”) was determined as 14% and the “Potentiation of the locomotive effect of L-Dopa % after 90'” value (“Potentiation … of L-Dopa % after 90'” below) worked out at 18%. In the assay with TSH, this compound yielded a TSH effect of 0.02%. Moreover, in the assay on Ethanol narcosis, the “Decrease of sleeping period (% related to the control animals) Ethanol” value worked out at 39%.

Take `NC(=O)[C@@H]1CCCCN1C(=O)[C@H](Cc1c[nH]cn1)NC(=O)[C@@H]1CCC(=O)N1` [His HPro H, L-Pyroglutamyl-L-histidyl-L-homoprolinamide]: in the assay with Reserpine hypothermy, the “Reserpine hypothermy reversing effect, Rectal temperature res.” value was determined as 28.5 °C; the “Reserpine hypothermy reversing effect, Rectal temperature norm.” value was determined as 36.5 °C; the “Reserpine hypothermy reversing effect, Rectal temperature obs. time 1 h” value amounted to 35.3 °C; the “Reserpine hypothermy reversing effect, Rectal temperature obs. time 2 h” value was 35.4 °C. For the same compound, the “Inhibition of Haloperidol catalepsy ED50” value in assay [1] was determined as 13.7 mg/kg. Moreover, in assay [2], the “Decrease of sleeping period (% related to the control animals) Hexobarb.” value was 63%. Also, in assay [3], the “Potentiation … of L-Dopa % after 30'” value worked out at 209%, the “Potentiation … of L-Dopa % after 60'” value was found to be 85% and the “Potentiation … of L-Dopa % after 90'” value stood at 110%. The TSH effect in the assay with TSH was determined as 68.6%. Further, the “Decrease of sleeping period (% related to the control animals) Ethanol” value in the assay with Ethanol narcosis worked out at 114%.

With `CCNC(=O)[C@@H]1CCCN1C(=O)[C@H](CC(C)C)NC(=O)[C@@H]1CCC(=O)N1` [Leu Pro Et, L-Pyroglutamyl-L-leucyl-L-proline ethylamide] ([pGlu]-Leu-Pro-NHEt), in the assay on Reserpine hypothermy, the “Reserpine hypothermy reversing effect, Rectal temperature res.” value was determined as 28.7 °C; the “Reserpine hypothermy reversing effect, Rectal temperature norm.” value came out at 36.2 °C; the “Reserpine hypothermy reversing effect, Rectal temperature obs. time 1 h” value was 30.7 °C; the “Reserpine hypothermy reversing effect, Rectal temperature obs. time 2 h” value was determined as 33.4 °C. In assay [1], the “Inhibition of Haloperidol catalepsy ED50” value worked out at 56.6 mg/kg. Besides, in assay [2], the “Decrease of sleeping period (% related to the control animals) Hexobarb.” value turned out to be 126%. In addition, in assay [3], the “Potentiation … of L-Dopa % after 30'” value is given as 102%, the “Potentiation … of L-Dopa % after 60'” value turned out to be 90% and the “Potentiation … of L-Dopa % after 90'” value was 201%. Also, the TSH effect in the assay on TSH stood at 0%. The “Decrease of sleeping period (% related to the control animals) Ethanol” value in the assay with Ethanol narcosis worked out at 65%.

Regarding `CCCC[C@H](NC(=O)[C@@H]1CCC(=O)N1)C(=O)N1CCC[C@H]1C(N)=O` [Nleu Pro H, L-Pyroglutamyl-L-norleucyl-L-prolinamide] ([pGlu]-[Nle]-Pro-NH2), in the assay on Reserpine hypothermy, the “Reserpine hypothermy reversing effect, Rectal temperature res.” value came out at 27.1 °C; the “Reserpine hypothermy reversing effect, Rectal temperature norm.” value was found to be 36.3 °C; the “Reserpine hypothermy reversing effect, Rectal temperature obs. time 1 h” value worked out at 37.6 °C; the “Reserpine hypothermy reversing effect, Rectal temperature obs. time 2 h” value turned out to be 32.2 °C. Further, the “Inhibition of Haloperidol catalepsy ED50” value in assay [1] was 16.8 mg/kg. Further, the “Decrease of sleeping period (% related to the control animals) Hexobarb.” value in assay [2] is 77%. For the same compound, in assay [3], the “Potentiation … of L-Dopa % after 30'” value is listed as 249%, the “Potentiation … of L-Dopa % after 60'” value was 105% and the “Potentiation … of L-Dopa % after 90'” value is 112%. The same compound yielded a TSH effect in the assay on TSH of 3.8%. Moreover, the “Decrease of sleeping period (% related to the control animals) Ethanol” value in the assay with Ethanol narcosis is 74%.

In the case of `CCC[C@H](NC(=O)[C@@H]1CCC(=O)N1)C(=O)N1CCC[C@H]1C(N)=O` [Nva Pro H, L-Pyroglutamyl-L-norvalyl-L-prolinamide] ([pGlu]-[Nva]-Pro-NH2), in the assay on Reserpine hypothermy, the “Reserpine hypothermy reversing effect, Rectal temperature res.” value is 25.9 °C; the “Reserpine hypothermy reversing effect, Rectal temperature norm.” value stood at 36.2 °C; the “Reserpine hypothermy reversing effect, Rectal temperature obs. time 1 h” value is 36.4 °C; the “Reserpine hypothermy reversing effect, Rectal temperature obs. time 2 h” value was found to be 32.0 °C. Further, the “Inhibition of Haloperidol catalepsy ED50” value in assay [1] amounted to 11.4 mg/kg. Also, in assay [2], the “Decrease of sleeping period (% related to the control animals) Hexobarb.” value turned out to be 114%. Moreover, in assay [3], the “Potentiation … of L-Dopa % after 30'” value came out at 254%, the “Potentiation … of L-Dopa % after 60'” value was 156% and the “Potentiation … of L-Dopa % after 90'” value amounted to 214%. The TSH effect in the assay on TSH turned out to be 0%. Moreover, in the assay on Ethanol narcosis, the “Decrease of sleeping period (% related to the control animals) Ethanol” value worked out at 77%.

`NC(=O)[C@@H]1CCCN1C(=O)[C@H](Cc1c[nH]cn1)NC(=O)[C@@H]1CCC(=O)N1` [TRH, L-pyroglutamyl-L-histidyl-L-prolinamide, reference compound]: in the assay with Reserpine hypothermy, the “Reserpine hypothermy reversing effect, Rectal temperature res.” value is 25.9 °C; the “Reserpine hypothermy reversing effect, Rectal temperature norm.” value was found to be 36.2 °C; the “Reserpine hypothermy reversing effect, Rectal temperature obs. time 1 h” value was found to be 33.5 °C; the “Reserpine hypothermy reversing effect, Rectal temperature obs. time 2 h” value came to 30.2 °C. The “Inhibition of Haloperidol catalepsy ED50” value in assay [1] was found to be 80 mg/kg. The “Decrease of sleeping period (% related to the control animals) Hexobarb.” value in assay [2] is 56%. For the same compound, in assay [3], the “Potentiation … of L-Dopa % after 30'” value came to 100%, the “Potentiation … of L-Dopa % after 60'” value is reported as 100% and the “Potentiation … of L-Dopa % after 90'” value was determined as 100%. The TSH effect with TSH came to 100.0%. Further, the “Decrease of sleeping period (% related to the control animals) Ethanol” value with Ethanol narcosis turned out to be 35%.
